Experimental data as given in patent publication US8546482B2, “Low odor compositions and low odor coating compositions” (Rohm and Haas Company, priority 2009, dated 2013).

Assays:
Assay type in all cases: biochemical
CALBL = target: T1, CALBL (Moesziomyces antarcticus, UniProt P41365); assay: Small molecule inhibitors, EA content of latex containing CALBL; design: EA content (column not headed): unit not given here; conditions: for Inhibition of the carboxylesterase enzyme (in words): CALBL 60 ppm, inhibitor 1.0%; for Effect of low inhibitor levels on enzyme activity (in words) / EA content (column not headed): CALBL 6 ppm; for Effect of low inhibitor levels on enzyme activity (in words): inhibitor as low as 0.01% or even 0.001% (solid on wet latex); for EA content (column not headed): latex
T1 construct: purchased Novozymes, Bagsvaerd, Denmark Novozym CALB L
T1 sequence (P41365 26-342): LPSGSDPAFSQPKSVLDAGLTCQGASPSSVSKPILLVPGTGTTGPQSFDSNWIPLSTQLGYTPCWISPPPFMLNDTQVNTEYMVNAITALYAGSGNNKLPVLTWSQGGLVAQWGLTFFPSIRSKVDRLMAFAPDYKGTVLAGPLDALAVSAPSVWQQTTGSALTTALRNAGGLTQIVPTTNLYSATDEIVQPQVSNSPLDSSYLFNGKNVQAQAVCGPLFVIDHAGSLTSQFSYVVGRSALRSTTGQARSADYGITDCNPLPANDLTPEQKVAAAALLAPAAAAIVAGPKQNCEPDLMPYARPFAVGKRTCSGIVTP
Procedure: (§1) In another embodiment, deactivation of the carboxylesterase enzyme may be achieved by the addition of a small molecule inhibitor, as shown for CALBL and N51032 in Tables 13 and 14, below. […] The small molecule inhibitor and CALBL were added simultaneously at the time t=0. In the following tables, the potential small molecule inhibitors are as follows: • PBA—phenylboronic acid • S-1-DS—Sodium 1-decane-sulfonate • NPB—Neopentylboronic acid • 2MPB—(2-methylpropyl)boronic acid • CBA—cyclohexylboronic acid
(§2) Again, optimization of the level of use for PBA and 2MPB in the latex is explored below, in Tables 15 and 16, respectively, by the same procedure.

N51032 [1] = assay: Small molecule inhibitors, EA content of latex containing N51032; conditions: N51032 5 ppm; for Effect of low inhibitor levels on enzyme activity (in words): inhibitor as low as 0.01% or even 0.001% (solid on wet latex); for EA content (column not headed): latex
N51032 [2] = assay: as above; conditions: N51032 50 ppm; inhibitor 1%
Procedure: as §1
The small molecule inhibitors are added at 1% by weight of solids on weight of wet latex (at the same time as the esterase).
as §2

Row | Structure (SMILES) | Inhibition of the carboxylesterase enzyme (in words) (CALBL) | Effect of low inhibitor levels on enzyme activity (in words) (CALBL) | EA content (column not headed) (CALBL; inhibitor 0.001%, 0 hr) | EA content (column not headed) (CALBL; inhibitor 0.001%, 120 hr) | EA content (column not headed) (CALBL; inhibitor 0.001%, 168 hr) | EA content (column not headed) (CALBL; inhibitor 0.001%, 384 hr) | EA content (column not headed) (CALBL; inhibitor 0.001%, 480 hr) | EA content (column not headed) (CALBL; inhibitor 0.01%, 0 hr) | EA content (column not headed) (CALBL; inhibitor 0.01%, 120 hr) | EA content (column not headed) (CALBL; inhibitor 0.01%, 168 hr) | EA content (column not headed) (CALBL; inhibitor 0.01%, 384 hr) | EA content (column not headed) (CALBL; inhibitor 0.01%, 480 hr) | EA content (column not headed) (CALBL; inhibitor 0.1%, 0 hr) | EA content (column not headed) (CALBL; inhibitor 0.1%, 120 hr) | EA content (column not headed) (CALBL; inhibitor 0.1%, 168 hr) | EA content (column not headed) (CALBL; inhibitor 0.1%, 384 hr) | EA content (column not headed) (CALBL; inhibitor 0.1%, 480 hr) | Effect of low inhibitor levels on enzyme activity (in words) (N51032 [1]) | EA content (column not headed) (N51032 [1]; inhibitor 0.001%, 0 hr) [ppm] | EA content (column not headed) (N51032 [1]; inhibitor 0.001%, 120 hr) [ppm] | also measured
1 | CC(C)(C)CB(O)O [NPB, Neopentylboronic acid] | completely ineffective as an inhibitor | – | – | – | – | – | – | – | – | – | – | – | – | – | – | – | – | – | – | – | –
2 | CC(C)CB(O)O [Paint 2MPB, (2-methylpropyl)boronic acid] | effective in inhibiting the carboxylesterase enzyme | sufficient to shut off the enzyme activity | 44 | 32 | 23 | 10 | 8 | 43 | 28 | 24 | 13 | 11 | 43 | 34 | 25 | 15 | 13 | sufficient to shut off the enzyme activity | 42 | 24 | EA content (column not headed) (N51032 [1]; inhibitor 0.001%, 168 hr): 22 ppm; EA content (column not headed) (N51032 [1]; inhibitor 0.001%, 384 hr): 8 ppm; EA content (column not headed) (N51032 [1]; inhibitor 0.001%, 480 hr): 6 ppm; EA content (column not headed) (N51032 [1]; inhibitor 0.01%, 0 hr): 37 ppm; EA content (column not headed) (N51032 [1]; inhibitor 0.01%, 120 hr): 25 ppm; EA content (column not headed) (N51032 [1]; inhibitor 0.01%, 168 hr): 19 ppm; EA content (column not headed) (N51032 [1]; inhibitor 0.01%, 384 hr): 6 ppm; EA content (column not headed) (N51032 [1]; inhibitor 0.01%, 480 hr): 5 ppm; EA content (column not headed) (N51032 [1]; inhibitor 0.1%, 0 hr): 43 ppm; EA content (column not headed) (N51032 [1]; inhibitor 0.1%, 120 hr): 34 ppm; EA content (column not headed) (N51032 [1]; inhibitor 0.1%, 168 hr): 27 ppm; EA content (column not headed) (N51032 [1]; inhibitor 0.1%, 384 hr): 22 ppm; EA content (column not headed) (N51032 [1]; inhibitor 0.1%, 480 hr): 20 ppm
3 | OB(O)c1ccccc1 [PBA, phenylboronic acid] | effective in inhibiting the carboxylesterase enzyme | sufficient to shut off the enzyme activity | 48 | 30 | 25 | 11 | 9 | 44 | 32 | 26 | 15 | 15 | 39 | 35 | 35 | 29 | 29 | sufficient to shut off the enzyme activity | 46 | 36 | Inhibition of the carboxylesterase enzyme (in words) (N51032 [2]): effective in inhibiting the carboxylesterase enzyme; EA content (column not headed) (N51032 [1]; inhibitor 0.001%, 168 hr): 34 ppm; EA content (column not headed) (N51032 [1]; inhibitor 0.001%, 384 hr): 22 ppm; EA content (column not headed) (N51032 [1]; inhibitor 0.001%, 480 hr): 19 ppm; EA content (column not headed) (N51032 [1]; inhibitor 0.01%, 0 hr): 45 ppm; EA content (column not headed) (N51032 [1]; inhibitor 0.01%, 120 hr): 41 ppm; EA content (column not headed) (N51032 [1]; inhibitor 0.01%, 168 hr): 39 ppm; EA content (column not headed) (N51032 [1]; inhibitor 0.01%, 384 hr): 34 ppm; EA content (column not headed) (N51032 [1]; inhibitor 0.01%, 480 hr): 34 ppm; EA content (column not headed) (N51032 [1]; inhibitor 0.1%, 0 hr): 46 ppm; EA content (column not headed) (N51032 [1]; inhibitor 0.1%, 120 hr): 34 ppm; EA content (column not headed) (N51032 [1]; inhibitor 0.1%, 168 hr): 41 ppm; EA content (column not headed) (N51032 [1]; inhibitor 0.1%, 384 hr): 38 ppm; EA content (column not headed) (N51032 [1]; inhibitor 0.1%, 480 hr): 39 ppm
4 | CCCCCCCCCCS(=O)(=O)[O-].[Na+] [Paint S-1-DS, Sodium 1-decane-sulfonate] | some ability to inhibit the CALBL enzyme | – | – | – | – | – | – | – | – | – | – | – | – | – | – | – | – | – | – | – | –
5 | OB(O)C1CCCCC1 [CBA, cyclohexylboronic acid] | some ability to inhibit the CALBL enzyme | – | – | – | – | – | – | – | – | – | – | – | – | – | – | – | – | – | – | – | –
